The target of the test is T1, human vasopressin V1a receptor subtype (Homo sapiens, UniProt P37288).
T1 construct: host or cells: CHO cells; pZeoSV vector for the Thibonnier line
Put plainly: Vasopressin binding in CHO cell membranes expressing human vasopressin V1a subtype receptors ([3H]Manning ligand radioligand binding). Particulars: for IC50: value printed in parentheses; for inhibition at 0.1 µM: @ 100 nM. The text has this:
Vasopressin Binding in Chinese Hamster Ovary Cell Membranes Expressing Human Vasopressin V1a Subtype Receptors
Chinese hamster ovary cells (CHO cells) stably transfected with the human vasopressin V1a subtype receptors were either obtained from BioSignal Inc., 1744 rue Williams, Montreal, Quebec, Canada or obtained from M. Thibonnier, Case Western Reserve University School of Medicine, Cleveland, Ohio.
A. Passaging and Amplification of Cells
CHO cells transfected with the human vasopressin V1a subtype receptors obtained from M. Thibonnier (pZeoSV vector) are allowed to grow to confluency (approx. >90%) in T-150 flasks under sterile conditions, in a cell culture medium of F-12 Nutrient Mixture (HAM) with L-glutamine (Gibco Cat. #11765-054) containing 15 mM HEPES (Gibco Cat. #15630-080), 1% antibiotic/antimycotic (add 5 mL 100×, Gibco Cat. #15240-062 per 500 mL F-12), 250 μg/mL Zeocin (add 1.25 mL of 100 mg/mL Invitrogen R-250-01 per 500 mL F-12) and 10% Fetal Bovine Serum (Qualified, heat inactivated, Gibco Cat. #16140-063). The medium is removed by aspiration and the cells are washed with 10 mL of Hank's Balanced Salt solution (Gibco Cat. #14175-095). The salt solution is removed by aspiration and the cells are trypsinized with 5 mL of trypsin-EDTA (0.05% trypsin, 0.53 mM EDTA-4Na, Gibco Cat. #25300-070) for 1 min. The trypsin is removed by aspiration and the cells dislodged by tapping. Cell Culture medium (e.g. 30 mL for 1:30 split) is immediately added and mixed well to inactivate trypsin. 1 mL of detached cells is added to new culture flasks containing fresh cell culture medium (e.g., into 25 mL per T-150 flask), and mixed gently. The cells are incubated at 37° C. in 5% CO2. The medium is changed at 3 to 4 days interval (or as appropriate). The cells grow to confluency (approx. >75%-95%) within 7-8 days. All steps are done under sterile conditions.
The cells are washed twice gently with Hank's Balanced Salt solution (e.g,. use 10 mL per T-150 flask). The excess is removed and the cells are bathed for 15-30 min. in an enzyme-free Cell Dissociation Buffer (e.g. use 8 mL Hank's Based, Gibco Cat. #13150-016 per T-150 flask) until the cells are loosened. The contents are transferred to centrifuge tubes (50 mL) kept in an ice bath. All subsequent steps are done at 4° C. The tubes are centrifuged at 300×g for 15 min (1380 rpm on SORVAL, Model RT6000D, using the rotor for 50 mL tubes). The supernatant is discarded and the cells suspended in homogenizing buffer(10 mM Tris-HCl containing 0.25 M sucrose and 1 mM EDTA, pH 7.4) ensuring that the volume of the buffer is about ten times the volume of the cell pellet. The cells are pooled into a centrifuge tube (50 mL) and homogenized with Polytron at setting 6 for 10 sec. The homogenate is transferred into a Potter-Elvjehm homogenizer and homogenized with 3 strokes. The homogenate is centrifuged at 1500×g for 10 min at 4° C. (3100 rpm using SORVAL, model RT6000D, using the rotor for 50 mL tubes). The pellet is discarded. The supernatant is centrifuged at 100,000×g for 60 min. at 4° C. (Beckman L8-80M ultracentrifuge; spin at 37,500 rpm with rotor type 70 Ti for 50 mL tubes; 38,000 rpm with type 80Ti for 15 mL tubes; or 35,800 rpm with rotor type 45Ti). The supernantant is discarded and the pellet suspended in 3 to 4 mL of Tris buffer (50 mM TRIS—HCl, pH 7.4). The protein content is estimated by the Bradford or Lowry method. The volume of the membrane suspension is adjusted with the membrane buffer (50 mM Tris-HCl containing 0.1% BSA and 0.1 mM PMSF) to give 3.0 mg/mL (or as appropriate) of protein. The membranes are aliquoted and stored at −70° C.
C. Radioligand Binding Assay […]

T1 sequence (P37288 whole entry): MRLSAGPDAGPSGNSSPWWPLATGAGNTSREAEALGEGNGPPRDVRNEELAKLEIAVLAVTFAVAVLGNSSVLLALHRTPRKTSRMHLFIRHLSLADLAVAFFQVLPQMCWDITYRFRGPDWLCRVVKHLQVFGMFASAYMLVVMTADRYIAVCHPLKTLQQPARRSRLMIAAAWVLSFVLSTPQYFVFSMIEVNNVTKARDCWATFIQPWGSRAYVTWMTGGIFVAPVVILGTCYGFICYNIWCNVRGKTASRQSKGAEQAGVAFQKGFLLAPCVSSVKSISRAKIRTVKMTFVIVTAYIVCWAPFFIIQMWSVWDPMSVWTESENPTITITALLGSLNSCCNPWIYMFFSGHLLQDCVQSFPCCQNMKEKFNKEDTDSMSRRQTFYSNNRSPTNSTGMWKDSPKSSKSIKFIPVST

By IC50 is commonly meant the concentration that inhibits the measured activity by half. For `COC[C@H](O)CN1CCN(C(=O)c2ccc3n2Cc2ccccc2N(C(=O)c2ccc(-c4ccccc4C(F)(F)F)c(C)c2)C3)CC1` [Example 8, (2R)-1-Methoxy-3-{4-[(10-{[2-methyl-2′-trifluoromethyl-[1,1′-biphenyl]-4-yl]carbonyl}-10,11-dihydro-5H-pyrrolo[2,1-c][1,4]benzodiazepin-3-yl)carbonyl]piperazin-1-yl}propan-2-ol], the IC50 turned out to be 1970 nM.
In general, inhibition refers to the drop in the measured response relative to a control, in per cent. On to `Cc1ccccc1-c1ccc(C(=O)N2Cc3ccc(C(=O)N4CCN(CCO)CC4)n3Cc3ccccc32)cc1C` [Example 46, {10-[(2,2′-Dimethyl[1,1′-biphenyl]-4-yl)carbonyl]-10,11-dihydro-5H-pyrrolo[2,1-c][1,4]benzodiazepin-3-yl}[4-(2-hydroxyethyl)-1-piperazinyl]methanone], for which the inhibition at 0.1 µM worked out at 53%.
For the compound `Cc1cc(C(=O)N2Cc3ccc(C(=O)N(C)CC4COC(=O)O4)n3Cc3ccccc32)ccc1-c1ccccc1C(F)(F)F` (centres unmarked) [Example 11, 10-[(2-Methyl-2′-trifluoromethyl-[1,1′-biphenyl]-4-yl)carbonyl]-10,11-dihydro-5H-pyrrolo[2,1-c][1,4]benzodiazepine-3-carboxylic acid methyl-[(2-oxo-[1,3]dioxolan-4-yl)methyl]-amide], the IC50 is 1370 nM.
With `Cc1cc(C(=O)N2Cc3ccc(C(=O)N4CCN(CCO)CC4)n3Cc3ccccc32)ccc1-c1ccccc1C(F)(F)F` [Example 48, [4-(2-Hydroxyethyl)-1-piperazinyl](10-{[2-methyl-2′-(trifluoromethyl)[1,1′-biphenyl]-4-yl)carbonyl}-10,11-dihydro-5H-pyrrolo[2,1-c][1,4]benzodiazepin-3-yl)methanone], the inhibition at 0.1 µM is 7%.
For the compound `Cc1ccccc1-c1ccc(C(=O)N2Cc3ccc(C(=O)N4CCN(CCO)CC4)n3Cc3ccccc32)cc1` [Example 45, [4-(2-Hydroxyethyl)-1-piperazinyl]{10-[(2′-methyl[1,1′-biphenyl]-4-yl)carbonyl]-10,11-dihydro-5H-pyrrolo[2,1-c][1,4]benzodiazepin-3-yl}methanone], the inhibition at 0.1 µM is 57%.
Turning to `COc1ccccc1-c1ccc(C(=O)N2Cc3ccc(C(=O)N4CCN(CCO)CC4)n3Cc3ccccc32)cc1` [Example 47, [4-(2-Hydroxyethyl)-1-piperazinyl]{10-[(2′-methoxy[1,1′-biphenyl]-4-yl)carbonyl]-10,11-dihydro-5H-pyrrolo[2,1-c][1,4]benzodiazepin-3-yl}methanone], the inhibition at 0.1 µM is 12%.
Same read-out and setting: the result for `COc1cc(C(=O)N2Cc3ccc(C(=O)N4CCN(CCO)CC4)n3Cc3ccccc32)ccc1-c1ccccc1C` [Example 42, [4-(2-Hydroxyethyl)-1-piperazinyl]{10-[(2-methoxy-2′-methyl[1,1′-biphenyl]-4yl)carbonyl]-10,11-dihydro-5H-pyrrolo[2,1-c][1,4]benzodiazepin-3-yl}methanone] reads 49%.
Consider `Cc1ccc(-c2ccc(C(=O)N3Cc4ccc(C(=O)N(C)CC(O)CO)n4Cc4ccccc43)cc2)c2ccccc12` (centres unmarked) [Example 26, 10-{[4-(4-Methyl-naphthalen-1-yl)phenyl]carbonyl}-10,11-dihydro-5H-pyrrolo[2,1-c][1,4]benzodiazepine-3-carboxylic acid (2,3-dihydroxy-propyl)-N-methylamide], for which the half-maximal inhibitory concentration (IC50) was found to be 140 nM.
As for `COCCN1CCN(C(=O)c2ccc3n2Cc2ccccc2N(C(=O)c2ccc(-c4ccccc4C(F)(F)F)c(C)c2)C3)CC1` [Example 7, Methyl 2-{4-[(10-{[2-methyl-2′-trifluoromethyl-[1,1′-biphenyl]-4-yl]carbonyl}-10,11-dihydro-5H-pyrrolo[2,1-c][1,4]benzodiazepin-3-yl)carbonyl]piperazin-1-yl}ethyl ether], the inhibition at 0.1 µM is -2%.
The same measure, in the same setting: the result for `COc1cc2c(cc1OC)N(C(=O)c1ccc(-c3ccccc3C(F)(F)F)c(C)c1)Cc1ccc(C(=O)N(CCO)CCO)n1C2` [Example 19, N,N-Bis(2-Hydroxyethyl)-7,8-dimethoxy-10-{[2-methyl-2′-trifluoromethyl-[1,1′-biphenyl]-4-yl]carbonyl}-10,11-dihydro-5H-pyrrolo[2,1-c][1,4]benzodiazepine-3-carboxamide] reads 1%.
With `Cc1cc(C(=O)N2Cc3ccc(C(=O)N4CCN(C[C@H](O)CO)CC4)n3Cc3ccccc32)ccc1-c1ccccc1C(F)(F)F` [Example 5, (2S)-3-{4-[(10-{[2-Methyl-2′-trifluoromethyl-[1,1′-biphenyl]-4-yl]carbonyl}-10,11-dihydro-5H-pyrrolo[2,1-c][1,4]benzodiazepin-3-yl)carbonyl]piperazin-1-yl}propane-1,2-diol], the IC50 came to 2720 nM.
Still for that read-out and setting: the result for `COc1cc(-c2ccccc2C(F)(F)F)c(Cl)cc1C(=O)N1Cc2ccc(C(=O)N(C)C[C@H](O)[C@@H](O)[C@H](O)[C@H](O)CO)n2Cc2ccccc21` [Example 20, 10-{[6-Chloro-3-methoxy-2′-trifluoromethyl-[1,1′-biphenyl]-4-yl]carbonyl}-N-methyl-N-[(2S,3R,4R,5R)-2,3,4,5,6-pentahydroxyhexyl]-10,11-dihydro-5H-pyrrolo[2,1-c][1,4]benzodiazepine-3-carboxamide] reads 3100 nM.
Same read-out and setting: the result for `Cc1cc(C(=O)N2Cc3ccc(C(=O)N(C)C[C@H](O)[C@@H](O)[C@H](O)[C@H](O)CO)n3Cc3ccccc32)ccc1-c1ccccc1C(F)(F)F` [Example 4, 10-[(2-Methyl-2′-trifluoromethyl-[1,1′-biphenyl]-4-yl)carbonyl]-10,11-dihydro-5H-pyrrolo[2,1-c][1,4]benzodiazepine-3-carboxylic acid methyl-((2S,3R,4R,5R)-2,3,4,5,6-pentahydroxy-hexyl)-amide] reads 1430 nM.
For `COc1ccccc1-c1ccc(C(=O)N2Cc3ccc(C(=O)N4CCN(CCO)CC4)n3Cc3ccccc32)cc1C` [Example 40, [4-(2-Hydroxyethyl)-1-piperazinyl]{10-[(2′-methoxy-2-methyl[1,1′-biphenyl]-4yl)carbonyl]-10,11-dihydro-5H-pyrrolo[2,1-c][1,4]benzodiazepin-3-yl}methanone], the inhibition at 0.1 µM worked out at 13%.
Regarding `COc1cccc(-c2ccc(C(=O)N3Cc4ccc(C(=O)N5CCN(CCO)CC5)n4Cc4ccccc43)cc2C)c1` [Example 44, [4-(2-Hydroxyethyl)-1-piperazinyl]{10-[(3′-methoxy-2-methyl[1,1′-biphenyl]-4yl)carbonyl]-10,11-dihydro-5H-pyrrolo[2,1-c][1,4]benzodiazepin-3-yl}methanone], the inhibition at 0.1 µM is 17%.
For `COc1cc(C(=O)N2Cc3ccc(C(=O)N(C)C[C@@H](O)[C@H](O)[C@H](O)[C@@H](O)CO)n3Cc3ccccc32)ccc1-c1ccccc1C(F)(F)F` (stereo in doubt) [Example 23, 10-{[2-Methoxy-2′-trifluoromethyl-[1,1′-biphenyl]-4-yl]carbonyl}-N-methyl-N-[(2R,3S,4R,5S)-2,3,4,5,6-pentahydroxyhexyl]-10,11-dihydro-5H-pyrrolo[2,1-c][1,4]benzodiazepine-3-carboxamide], the IC50 stood at 1080 nM.
`COCC(CN(C)C(=O)c1ccc2n1Cc1ccccc1N(C(=O)c1ccc(-c3ccccc3C(F)(F)F)c(C)c1)C2)OC` (centres unmarked) [Example 10, N-(2,3-Dimethoxypropyl)-N-methyl-10-{[2-methyl-2′-trifluoromethyl-[1,1′-biphenyl]-4-yl]carbonyl}-10,11-dihydro-5H-pyrrolo[2,1-c][1,4]benzodiazepine-3-carboxamide]: the IC50 came out at 1800 nM.
